This test concerns HCV replicon. Briefly: microbe, parasite or virus in culture. The class given is cell-based.
[1] abbreviates: Replicon IC50 values are determined by firefly luciferase signal, bicistronic replicon, 2 days, read-out: Replicon IC5Os.
[2] abbreviates: Hepatitis C virus, 48 h, read-out: Replicon IC5Os.

Where two headings read alike, the source gives them in different places.

In the case of `COc1ccc2c(C#N)c(C#Cc3ccccc3)[nH]c2c1` [Compound 238], the IC50 under setting [1] is > 2 µM.

`CCn1c(-c2ccc(N)cc2)c(C#N)c2cc(OC)ccc21` [Compound 239]: the IC50 under setting [1] is > 2 µM.

With `CCn1c(-c2ccc(C(=O)OC)cc2)c(C#N)c2cc(OC)ccc21` [Compound 240], the IC50 under setting [1] is > 2 µM.

Regarding `CCn1c(-c2ccc(NC(C)=O)cc2)c(C#N)c2cc(OC)ccc21` [Compound 242], the IC50 under setting [1] was > 2 µM.

For the compound `CCn1c(-c2ccc(C(=O)N3CCCC3)cc2)c(C#N)c2cc(OC)ccc21` [Compound 246], the IC50 under setting [1] is > 2 µM.

In the case of `CCn1c(-c2ccc(O)cc2)c(C#N)c2ccc(OC)cc21` [Compound 247], the IC50 under setting [1] is > 2 µM.

As to `CCn1c(-c2ccc(OCCO)cc2)c(C#N)c2ccc(OC)cc21` [Compound 249], the IC50 under setting [1] lay within 0.5 to 2 µM.

On to `CCn1c(-c2ccc(SC)cc2)c(C#N)c2ccc(OC)cc21` [Compound 250], for which the IC50 under setting [1] was > 2 µM.

Consider `COc1ccc2c(C#N)c(-c3ccc4c(c3)OCO4)n(C)c2c1` [Compound 254], for which the IC50 under setting [1] is > 2 µM.

On to `CCn1c(-c2ccc(O)cc2)c(C#N)c2ccc(C(F)(F)F)cc21` [Compound 256], for which the IC50 under setting [1] was > 2 µM.

Turning to `CCn1c(-c2ccc(N)cc2)c(C#N)c2ccc(C(F)(F)F)cc21` [Compound 257], under setting [1], the IC50 was > 2 µM.

As to `CCn1c(-c2cccc(N)c2)c(C#N)c2ccc(C(F)(F)F)cc21` [Compound 258], the IC50 under setting [1] was > 2 µM.

`CCn1c(-c2ccc(N(C)C)cc2)c(C#N)c2ccc(C(F)(F)F)cc21` [Compound 259]: under setting [1], the IC50 was > 2 µM.

In the case of `CCn1c(-c2ccc3c(c2)OCO3)c(C#N)c2ccc(C(F)(F)F)cc21` [Compound 260], the IC50 under setting [1] is > 2 µM.

As to `CCn1c(-c2ccc(OCCN3CCN(C)CC3)cc2)c(C#N)c2ccc(OC)cc21` [Compound 263], under setting [1], the IC50 fell in the range of 0.5 to 2 µM.

In the case of `CCn1c(-c2ccc(OCCN3CC[C@H](O)C3)cc2)c(C#N)c2ccc(OC)cc21` [Compound 264], the IC50 (Hepatitis C virus, 48 h, read-out: Replicon IC5Os μM) lay within 0.5 to 2 µM.

Turning to `CCOc1ccc2c(C#N)c(-c3ccc(C(=O)N4CCOCC4)cc3)n(CC)c2c1` [Compound 270], the IC50 under setting [1] was > 2 µM.

Consider `CCn1c(-c2ccc(C(=O)N3CCOCC3)cc2)c(C#N)c2ccc(OC(C)C)cc21` [Compound 271], for which the IC50 under setting [1] was in the range of 0.5 to 2 µM.

Consider `CCn1c(-c2ccc(NS(=O)(=O)C3CC3)cc2)c(C#N)c2ccc(OC)cc21` [Compound 272], for which the IC50 under setting [1] lay within 0.5 to 2 µM.

Consider `CCn1c(-c2ccc(NS(=O)(=O)CCl)cc2)c(C#N)c2ccc(OC)cc21` [Compound 273], for which the IC50 under setting [1] was > 2 µM.

`CCn1c(-c2ccc(S(=O)(=O)N(C)C)cc2)c(C#N)c2ccc(OC)cc21` [Compound 275]: under setting [1], the IC50 was > 2 µM.

On to `CCn1c(-c2ccc(S(=O)(=O)N3CCOCC3)cc2)c(C#N)c2ccc(OC)cc21` [Compound 276], for which, under setting [1], the IC50 is > 2 µM.

`CCn1c(-c2ccc(S(=O)(=O)NC)cc2)c(C#N)c2ccc(OC)cc21` [Compound 277]: under setting [1], the IC50 was > 2 µM.

As for `CCn1c(-c2ccc(S(N)(=O)=O)cc2)c(C#N)c2ccc(OC)cc21` [Compound 278], under setting [1], the IC50 is > 2 µM.

On to `CCn1c(-c2cc3ccccc3o2)c(C#N)c2ccc(OC)cc21` [Compound 282], for which the IC50 under setting [1] was > 2 µM.

As for `CCn1c(-c2ccc(-c3ccccc3)cc2)c(C#N)c2ccc(OC)cc21` [Compound 283], the IC50 under setting [1] was > 2 µM.

As to `CCn1c(-c2cc3ccccc3s2)c(C#N)c2ccc(OC)cc21` [Compound 286], the IC50 under setting [1] was in the range of 0.5 to 2 µM.

For the compound `CCn1c(-c2cccc(NS(=O)(=O)CC)c2)c(C#N)c2ccc(OC)cc21` [Compound 287], the IC50 under setting [1] was > 2 µM.

Turning to `CCn1c(-c2cccc(NS(=O)(=O)CCCCl)c2)c(C#N)c2ccc(OC)cc21` [Compound 289], the IC50 under setting [1] was > 2 µM.

For the compound `CCn1c(-c2cccc(C(=O)NCCN3CCOCC3)c2)c(C#N)c2ccc(OC)cc21` [Compound 290], under setting [1], the IC50 is > 2 µM.

Consider `CCn1c(-c2cccc(C(N)=O)c2)c(C#N)c2ccc(OC)cc21` [Compound 291], for which, under setting [1], the IC50 was > 2 µM.

As for `CCNC(=O)c1cccc(-c2c(C#N)c3ccc(OC)cc3n2CC)c1` [Compound 292], the IC50 under setting [1] is > 2 µM.

Take `CCn1c(-c2cccc(NC(=O)Oc3ccccc3)c2)c(C#N)c2ccc(OC)cc21` [Compound 293]: the IC50 under setting [1] was > 2 µM.

With `CCOC(=O)Nc1cccc(-c2c(C#N)c3ccc(OC)cc3n2CC)c1` [Compound 294], the IC50 under setting [2] is < 0.5 µM.

As for `CCn1c(-c2cccc(NC(=O)OCC(C)C)c2)c(C#N)c2ccc(OC)cc21` [Compound 296], the IC50 under setting [2] lay within 0.5 to 2 µM.

As to `CCCOC(=O)Nc1cccc(-c2c(C#N)c3ccc(OC)cc3n2CC)c1` [Compound 297], the IC50 under setting [2] was 0.5 to 2 µM.

Consider `CCn1c(-c2cccc(NC(=O)OCCOC)c2)c(C#N)c2ccc(OC)cc21` [Compound 298], for which the IC50 under setting [2] was 0.5 to 2 µM.

Take `C=CCOC(=O)Nc1cccc(-c2c(C#N)c3ccc(OC)cc3n2CC)c1` [Compound 299]: the IC50 under setting [2] lay within 0.5 to 2 µM.

Turning to `CCCCOC(=O)Nc1cccc(-c2c(C#N)c3ccc(OC)cc3n2CC)c1` [Compound 300], the IC50 under setting [1] lay within 0.5 to 2 µM.

As to `CCn1c(-c2cccc(NC(=O)OCCCCl)c2)c(C#N)c2ccc(OC)cc21` [Compound 301], the IC50 under setting [2] is 0.5 to 2 µM.

With `CCn1c(-c2cccc(NC(=O)OCCF)c2)c(C#N)c2ccc(OC)cc21` [Compound 302], the IC50 under setting [2] was in the range of 0.5 to 2 µM.

`CCn1c(-c2cccc(NC(=O)OCc3ccccc3)c2)c(C#N)c2ccc(OC)cc21` [Compound 304]: the IC50 under setting [2] lay in the range of 0.5 to 2 µM.

With `CCn1c(-c2cccc(NC(=O)Oc3ccc(OC)cc3)c2)c(C#N)c2ccc(OC)cc21` [Compound 305], under setting [1], the IC50 was > 2 µM.

Consider `CCn1c(-c2cccc(NC(=O)Oc3ccc(Cl)cc3)c2)c(C#N)c2ccc(OC)cc21` [Compound 306], for which, under setting [2], the IC50 fell in the range of 0.5 to 2 µM.

`CCn1c(-c2cccc(NC(=O)Oc3ccc(F)cc3)c2)c(C#N)c2ccc(OC)cc21` [Compound 307]: the IC50 under setting [1] lay in the range of 0.5 to 2 µM.

As for `CCn1c(-c2cccc(NC(=O)Oc3ccc(Br)cc3)c2)c(C#N)c2ccc(OC)cc21` [Compound 309], the IC50 under setting [2] fell in the range of 0.5 to 2 µM.

Take `CCn1c(-c2cccc(NC(=O)OC(C)C)c2)c(C#N)c2ccc(OC)cc21` [Compound 310]: the IC50 under setting [2] is 0.5 to 2 µM.

Take `CCn1c(-c2ccc(NC(=O)OCC(C)C)cc2)c(C#N)c2ccc(OC)cc21` [Compound 311]: the IC50 under setting [1] was > 2 µM.

`CCCOC(=O)Nc1ccc(-c2c(C#N)c3ccc(OC)cc3n2CC)cc1` [Compound 312]: the IC50 under setting [1] is > 2 µM.

On to `CCn1c(-c2ccc(NC(=O)OCCOC)cc2)c(C#N)c2ccc(OC)cc21` [Compound 313], for which the IC50 under setting [1] is > 2 µM.

For the compound `C=CCOC(=O)Nc1ccc(-c2c(C#N)c3ccc(OC)cc3n2CC)cc1` [Compound 314], the IC50 under setting [1] is > 2 µM.

`CCn1c(-c2ccc(NC(=O)OCCCCl)cc2)c(C#N)c2ccc(OC)cc21` [Compound 315]: the IC50 under setting [1] was > 2 µM.

With `CCn1c(-c2ccc(NC(=O)OC3C[C@H](C)CC[C@H]3C(C)C)cc2)c(C#N)c2ccc(OC)cc21` (stereo partly shown) [Compound 316], under setting [1], the IC50 is > 2 µM.

For the compound `CCn1c(-c2ccc(NC(=O)OCCF)cc2)c(C#N)c2ccc(OC)cc21` [Compound 317], under setting [1], the IC50 was > 2 µM.

Take `CCn1c(-c2ccc(NC(=O)Oc3ccc(Cl)cc3)cc2)c(C#N)c2ccc(OC)cc21` [Compound 318]: under setting [1], the IC50 is > 2 µM.

With `CCn1c(-c2ccc(NC(=O)Oc3ccc(F)cc3)cc2)c(C#N)c2ccc(OC)cc21` [Compound 319], the IC50 under setting [1] was > 2 µM.

For the compound `CCn1c(-c2ccc(NC(=O)Oc3ccc(C)cc3)cc2)c(C#N)c2ccc(OC)cc21` [Compound 320], under setting [1], the IC50 is > 2 µM.

Turning to `CCn1c(-c2cccc(C(=O)NCCCN3CCOCC3)c2)c(C#N)c2ccc(OC)cc21` [Compound 323], the IC50 under setting [1] was > 2 µM.

Turning to `CCn1c(-c2cccc(NC(=O)CCl)c2)c(C#N)c2ccc(OC)cc21` [Compound 324], the IC50 under setting [1] is > 2 µM.

As to `CCn1c(-c2cccc(NC(=O)c3ccccc3)c2)c(C#N)c2ccc(OC)cc21` [Compound 326], the IC50 under setting [1] is > 2 µM.

Take `CCn1c(-c2cccc(NC(=O)c3ccco3)c2)c(C#N)c2ccc(OC)cc21` [Compound 327]: the IC50 under setting [1] is > 2 µM.

Take `CCn1c(-c2cccc(NC(=O)c3cc(C)on3)c2)c(C#N)c2ccc(OC)cc21` [Compound 328]: the IC50 under setting [1] was > 2 µM.

With `CCn1c(-c2cccc(NC(C)=O)c2)c(C#N)c2ccc(OC)cc21` [Compound 329], the IC50 under setting [1] was > 2 µM.

In the case of `CCn1c(-c2cccc(NC(=O)c3ccc4nonc4c3)c2)c(C#N)c2ccc(OC)cc21` [Compound 330], the IC50 under setting [1] was > 2 µM.

With `CCn1c(-c2cccs2)c(C#N)c2ccc(OC)cc21` [Compound 337], the IC50 under setting [1] was > 2 µM.

For `CCn1c(-c2cccc3c2oc2ccccc23)c(C#N)c2ccc(OC)cc21` [Compound 338], the IC50 under setting [1] is > 2 µM.

Turning to `CCCn1c(-c2ccc(NS(=O)(=O)CC)cc2)cc2ccc(OC)cc21` [Compound 343], under setting [1], the IC50 was > 2 µM.

For the compound `CCn1c(-c2cn(Cc3ccccc3)cn2)c(C#N)c2ccc(OC)cc21` [Compound 347], under setting [1], the IC50 was > 2 µM.

Take `CCn1c(-c2cc[nH]n2)c(C#N)c2ccc(OC)cc21` [Compound 348]: under setting [1], the IC50 is > 2 µM.

For the compound `CCC(C)OC(=O)Nc1cccc(-c2c(C#N)c3ccc(OC)cc3n2CC)c1` (stereo not shown) [Compound 349], the IC50 under setting [2] was < 0.5 µM.

`C#CCOC(=O)Nc1cccc(-c2c(C#N)c3ccc(OC)cc3n2CC)c1` [Compound 350]: the IC50 under setting [2] was in the range of 0.5 to 2 µM.

Turning to `C=CC(C)OC(=O)Nc1cccc(-c2c(C#N)c3ccc(OC)cc3n2CC)c1` (stereo not shown) [Compound 351], under setting [2], the IC50 lay within 0.5 to 2 µM.

Turning to `C#CCCOC(=O)Nc1cccc(-c2c(C#N)c3ccc(OC)cc3n2CC)c1` [Compound 352], under setting [1], the IC50 is 0.5 to 2 µM.

As to `CCn1c(-c2cccc(NC(=O)OC)c2)c(C#N)c2ccc(OC)cc21` [Compound 353], the IC50 under setting [2] is < 0.5 µM.

On to `CC#CCOC(=O)Nc1cccc(-c2c(C#N)c3ccc(OC)cc3n2CC)c1` [Compound 354], for which the IC50 under setting [1] fell in the range of 0.5 to 2 µM.

Turning to `CCn1c(-c2cccc(NC(=O)OCCl)c2)c(C#N)c2ccc(OC)cc21` [Compound 355], the IC50 under setting [1] was > 2 µM.

Source of the values: patent US8013006B2.
